Laboratory results reported in publication PMC8899516, “Structure-Activity Relationship Studies of 4-((4-(2-fluorophenyl)piperazin-1-yl)methyl)-6-imino-N-(naphthalen-2-yl)-1,3,5-triazin-2-amine (FPMINT) Analogues as Inhibitors of Human Equilibrative Nucleoside Transporters” (Frontiers in Pharmacology, 2022).

What was measured:
ENT1 [1] = experiment: Western blotting of ENT1 protein expression; assay type: cell-based, human; conditions: 50 µM, 24 h or 48 h
Protocol: (§1) PK15NTD/ENT1 and PK15NTD/ENT2 cells were grown to confluence in 10-cm culture dishes and treated with 50 µM of compound 3c or an equivalent volume of a vehicle (0.5% DMSO) for 24 h or 48 h. The cells were washed thrice with ice-cold PBS. Total protein was extracted by cell lysis in a lysis buffer (5 mM sodium monophosphate, pH 8) with a protease inhibitor cocktail (Sigma, St Louis, MO, United States; 1:1,000 [v/v]). The protein content was measured by bicinchoninic acid assay. Protein samples were separated by 12.5% sodium dodecyl sulfate–polyacrylamide gel electrophoresis (SDS-PAGE) and blotted onto polyvinylidene difluoride (PVDF) membranes. […] The membranes were then again washed, and the bound secondary antibodies were detected using an enhanced chemiluminescence kit (Bio-Rad, Hercules, CA, United States). […] To semi-quantify the ENT1 and ENT2 protein levels, the same membranes were washed three times with a stripping buffer for 10 min at room temperature, and the protein expression level of β-actin was measured using monoclonal mouse anti-β-actin primary antibodies (1:3,000 [v/v] dilution in a blocking solution). […]
(§2) FIGURE 5 Effects of compound 3c on cytotoxicity and protein expressions of ENT1 and ENT2. […] Total ENT1 and ENT2 from whole-cell lysates were also detected for a comparison. β-actin served as an internal reference. […]

ENT2 [2] = experiment: Western blotting of ENT2 protein expression; assay type: cell-based, human; conditions: 50 µM, 24 h or 48 h
Protocol: as §1, §2

ENT1 [3] = target: T1, ENT1 (Homo sapiens, UniProt Q99808); experiment: Wash-out reversibility of [3H]uridine uptake inhibition in PK15NTD/ENT1 cells; assay type: cell-based; conditions: 50 µM, incubation 1–60 min, washed five times
T1 construct: expressed in transfected cells
T1 sequence (Q99808 1-456): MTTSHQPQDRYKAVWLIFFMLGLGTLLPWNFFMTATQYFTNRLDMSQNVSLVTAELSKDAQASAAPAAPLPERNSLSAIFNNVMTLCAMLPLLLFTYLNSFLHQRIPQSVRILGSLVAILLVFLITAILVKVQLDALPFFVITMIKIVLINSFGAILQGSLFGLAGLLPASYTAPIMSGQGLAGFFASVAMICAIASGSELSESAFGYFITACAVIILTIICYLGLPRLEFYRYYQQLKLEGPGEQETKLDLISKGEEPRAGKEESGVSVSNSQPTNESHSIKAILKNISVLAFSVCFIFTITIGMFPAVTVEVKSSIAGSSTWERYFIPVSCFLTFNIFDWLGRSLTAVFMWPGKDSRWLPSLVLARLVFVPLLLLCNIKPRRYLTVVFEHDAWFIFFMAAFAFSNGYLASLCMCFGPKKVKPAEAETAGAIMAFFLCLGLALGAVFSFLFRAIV
Protocol: (§3) To determine whether the inhibitory effects of compound 3c were reversible or irreversible, PK15NTD/ENT1 and PK15NTD/ENT2 cells were incubated with 50 µM of compound 3c for different time periods (1–60 min). The cells were then washed five times with buffer. After wash-out for every single time [^3H]uridine uptake was measured. […] The longer the incubation time with compound 3c, the more difficult it was to wash-out the inhibitory effects of compound 3c.
(§4) FIGURE 6 Reversibility of the inhibitory effects of compound 3c on ENT1 and ENT2 (A) PK15NTD/ENT1 and (B) PK15NTD/ENT2 cells were incubated with 50 μM of compound 3c or a vehicle (0.5% DMSO, as a control) for different time (0–60 min) The cells were then washed five times. After wash-out for every single time [^3H]uridine uptake (1 μM, 2 μCi/ml) was measured. Data are presented as mean ± SE of three experiments. ^* p < 0.05 compared with the fifth wash.

ENT2 [4] = target: T2, ENT2 (Homo sapiens, UniProt Q14542); experiment: Wash-out reversibility of [3H]uridine uptake inhibition in PK15NTD/ENT2 cells; assay type: cell-based; conditions: 50 µM, incubation 1–60 min, washed five times
T2 construct: expressed in transfected cells
T2 sequence (Q14542 1-456): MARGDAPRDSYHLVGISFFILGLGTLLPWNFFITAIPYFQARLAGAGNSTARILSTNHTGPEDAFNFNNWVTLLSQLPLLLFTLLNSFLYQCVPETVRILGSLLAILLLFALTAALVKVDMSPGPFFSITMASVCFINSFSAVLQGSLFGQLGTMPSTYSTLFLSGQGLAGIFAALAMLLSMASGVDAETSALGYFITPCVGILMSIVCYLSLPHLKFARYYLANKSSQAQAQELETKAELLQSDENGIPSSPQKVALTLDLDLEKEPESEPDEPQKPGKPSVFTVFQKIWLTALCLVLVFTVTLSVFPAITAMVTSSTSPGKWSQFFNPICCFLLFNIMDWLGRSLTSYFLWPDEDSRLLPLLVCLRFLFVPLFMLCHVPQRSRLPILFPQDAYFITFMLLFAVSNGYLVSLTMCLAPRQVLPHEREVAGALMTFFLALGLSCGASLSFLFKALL
Protocol: as §3, §4

SMILES: Cc1cccc(Nc2nc(N)nc(CN3CCN(c4ccc(F)cc4)CC3)n2)c1 [Compound 3c]
- protein expression level of ENT1 (ENT1 [1]): unaltered
- protein expression level of ENT2 (ENT2 [2]): unaltered
- reversibility of inhibitory effect on ENT1 by washing (ENT1 [3]): only partially reversed by washing
- reversibility of inhibitory effect on ENT2 by washing (ENT2 [4]): only partially reversed by washing
